pEC50: −log10 of the molar value.
The compounds below were run on Bmi-1 protein (assay: Sandwich ELISA Assay: Bmi-1 protein level in HT-1080 cells treated with test compounds).
Format: cell-based
Method: Cell Seeding and Compound Treatment (Day 1):
HT-1080 cells were seeded at 8000 cells/well (50 μL) in 96-well tissue culture plates. After the cells became adherent (3-4 hours), 2× diluted stocks of test compounds in 50 μL DMEM containing 1% DMSO (final DMSO concentration was 0.5%) were added and the plates were incubated at 37° C. under 5% CO2 for 40-48 hours.
ELISA Plate First Antibody Preparation (Day 2):
The First Antibody (Millipore Mouse, monoclonal to mouse Bmi-1, clone F6, catalog #05-637) diluted to 2 μg/mL in PBS was added (100 μL) to each well of a Nunc MaxiSorp 96-well ELISA plate. The plate was covered with a plate seal and allowed to stand overnight.
Cell Lysate Preparation (Day 3):
Fresh Lysis buffer (1×) was prepared on the day of the assay as follows: 1 mM EDTA, 150 mM NaCl, 0.5% Triton-X 100, 10 mM NaF, 20 mM B-Glycerophosphate, 1 mM DTT (in PBS, pH 7.2-7.4) and HALT protease inhibitor cocktail (1×) (Pierce #78410).
Lysis Buffer (1×, 40 μL) was added to each well and the plate was shaken for 5-10 minutes on an orbital shaker to allow cell lysis, then diluent (1% BSA in PBS in 0.5% NP40) (100 μL) was added to each well.
A standard curve was prepared at the following Bmi-1 concentrations: 8000, 4000, 2000, 1000, 500, 250, 125 and 0 pg/mL. The Bmi-1 Recombinant Protein Standard (Novus Biologicals PCGF4 Recombinant Protein (P01), catalog # H00000648-P01) used to prepare the standard curve was stored at −80° C. On first thaw, the Recombinant Protein Standard was diluted to 10 μg/μL in Blocking Buffer (1% BSA in PBS; BSA: Fisher Scientific Catalog #1600-100). Aliquots were taken and refrozen at −80° C. The aliquots may be kept at 4° C. and reused after first thaw, but only within 1-2 weeks. The Recombinant Protein Standard contains a GST-fusion tag that appears at approximately 70 Kda on Western Blot.
The prepared ELISA plate was washed 3× with Wash Buffer (0.05% Tween-20 in PBS). The final wash was removed from the plate and the plate was blotted dry. Blocking Buffer (300 μL) (1% BSA in PBS) was added to each well. The plate was covered with a plate seal and incubated at room temperature for 1 hour. The blocked plate was washed 3× with Wash Buffer, then the final wash was removed and the plate was blotted dry. The previously prepared samples and standards were added (100 μL/well) and the plate was covered with a plate seal and incubated at 4° C. overnight.
The prepared ELISA plate was removed from incubation and allowed to stand at room temperature for 30 minutes, then washed and blotted dry. The Second Antibody (Cell Signaling Rabbit anti-Bmi-1, Cat# 2830) diluted to 1:600 in Blocking Buffer was added (100 μL) to each well, except as needed for background control wells. The plate was covered with a plate seal and incubated for 1.5 hrs at room temperature.
The ELISA plate was washed and blotted dry as previously described. The Third Antibody (Cell Signaling HRP conjugated anti-rabbit IgG (CellSignaling, Cat#:7074) diluted to 1:300 in Blocking Buffer was added (100 μL) to each well, except as needed for background control wells. The plate was incubated for 1 hr at room temperature.
The plate was washed and blotted dry, then a previously prepared TMB substrate (TMB substrate kit, Pierce catalog #34021) (prepared by mixing kit reagents 1:1) (100 μL) was added per well. The plate was incubated for 20-30 minutes at room temperature in the dark, then Stop Solution (2 M sulfuric acid in water) (50 μL) was added per well. The plates were read at OD450 (experimental) and OD570 (reference).

pEC50	Compound
7.00 to 8.00	CCc1nc2ccccc2n1-c1nc(N)nc(Nc2ccc(OC(F)F)cc2)n1 [Cpd 31, N-[4-(difluoromethoxy)phenyl]-6-(2-ethyl-1H-benzimidazol-1-yl)-1,3,5-triazine-2,4-diamine]
7.00 to 8.00	Cc1nc2ncc(Br)cc2n1-c1nc(N)nc(Nc2ccc(C(F)(F)F)cc2)n1 [Cpd 32, 6-(6-bromo-2-methyl-1H-imidazo[4,5-b]pyridin-1-yl)-N-[4-(trifluoromethyl)phenyl]-1,3,5-triazine-2,4-diamine]
7.00 to 8.00	Cc1nc2ncc(Cl)cc2n1-c1nc(N)nc(Nc2ccc(C(F)(F)F)cc2)n1 [Cpd 33, 6-(6-chloro-2-methyl-1H-imidazo[4,5-b]pyridin-1-yl)-N-[4-(trifluoromethyl)phenyl]-1,3,5-triazine-2,4-diamine]
5.52 to 7.00	Cc1nc2ncc(Br)cc2n1-c1nc(NCCO)nc(Nc2ccc(C(F)(F)F)cc2)n1 [Cpd 34, 2-{[4-(6-bromo-2-methyl-1H-imidazo[4,5-b]pyridin-1-yl)-6-{[4-(trifluoromethyl)phenyl]amino}-1,3,5-triazin-2-yl]amino}ethanol]
5.52 to 7.00	Cc1nc2ncc(Cl)cc2n1-c1nc(NCCO)nc(Nc2ccc(C(F)(F)F)cc2)n1 [Cpd 35, 2-{[4-(6-chloro-2-methyl-1H-imidazo[4,5-b]pyridin-1-yl)-6-{[4-(trifluoromethyl)phenyl]amino}-1,3,5-triazin-2-yl]amino}ethanol]
5.52 to 7.00	Nc1nc(Nc2ccc(C(F)(F)F)cc2)nc(-n2c(C3CC3)nc3ncc(F)cc32)n1 [Cpd 36, 6-(2-cyclopropyl-6-fluoro-1H-imidazo[4,5-b]pyridin-1-yl)-N-[4-(trifluoromethyl)phenyl]-1,3,5-triazine-2,4-diamine]
7.00 to 8.00	CCc1nc2ccccc2n1-c1nc(N)nc(Nc2ccc(OC(F)F)c(F)c2)n1 [Cpd 37, N-[4-(difluoromethoxy)-3-fluorophenyl]-6-(2-ethyl-1H-benzimidazol-1-yl)-1,3,5-triazine-2,4-diamine]
7.00 to 8.00	Cc1nc2ncc(Br)cc2n1-c1nc(N)nc(Nc2ccc(OC(F)F)cc2)n1 [Cpd 38, 6-(6-bromo-2-methyl-1H-imidazo[4,5-b]pyridin-1-yl)-N-[4-(difluoromethoxy)phenyl]-1,3,5-triazine-2,4-diamine]
7.00 to 8.00	Cc1nc2ncc(Br)cc2n1-c1nc(N)nc(Nc2ccc(OC(F)F)c(F)c2)n1 [Cpd 39, 6-(6-bromo-2-methyl-1H-imidazo[4,5-b]pyridin-1-yl)-N-[4-(difluoromethoxy)-3-fluorophenyl]-1,3,5-triazine-2,4-diamine]
7.00 to 8.00	Cc1nc2ncc(Cl)cc2n1-c1nc(N)nc(Nc2ccc(OC(F)F)cc2)n1 [Cpd 40, 6-(6-chloro-2-methyl-1H-imidazo[4,5-b]pyridin-1-yl)-N-[4-(difluoromethoxy)phenyl]-1,3,5-triazine-2,4-diamine]
7.00 to 8.00	Cc1nc2ncc(Cl)cc2n1-c1nc(N)nc(Nc2ccc(OC(F)F)c(F)c2)n1 [Cpd 41, 6-(6-chloro-2-methyl-1H-imidazo[4,5-b]pyridin-1-yl)-N-[4-(difluoromethoxy)-3-fluorophenyl]-1,3,5-triazine-2,4-diamine]
7.00 to 8.00	Nc1nc(Nc2ccc(C(F)(F)F)cc2)nc(-n2c(C3CC3)nc3ccccc32)n1 [Cpd 42, 6-(2-cyclopropyl-1H-benzimidazol-1-yl)-N-[4-(trifluoromethyl)phenyl]-1,3,5-triazine-2,4-diamine]
7.00 to 8.00	Nc1nc(Nc2ccc(OC(F)F)cc2)nc(-n2c(C3CC3)nc3ccccc32)n1 [Cpd 43, 6-(2-cyclopropyl-1H-benzimidazol-1-yl)-N-[4-(difluoromethoxy)phenyl]-1,3,5-triazine-2,4-diamine]
7.00 to 8.00	Nc1nc(Nc2ccc(OC(F)F)c(F)c2)nc(-n2c(C3CC3)nc3ccccc32)n1 [Cpd 44, 6-(2-cyclopropyl-1H-benzimidazol-1-yl)-N-[4-(difluoromethoxy)-3-fluorophenyl]-1,3,5-triazine-2,4-diamine]
7.00 to 8.00	CCc1nc2c(F)cc(F)cc2n1-c1nc(N)nc(Nc2ccc(C(F)(F)F)cc2)n1 [Cpd 45, 6-(2-ethyl-4,6-difluoro-1H-benzimidazol-1-yl)-N-[4-(trifluoromethyl)phenyl]-1,3,5-triazine-2,4-diamine]
5.52 to 7.00	Cc1nc2c(F)cc(F)cc2n1-c1nc(N)nc(Nc2ccc(C(F)(F)F)cc2)n1 [Cpd 46, 6-(4,6-difluoro-2-methyl-1H-benzimidazol-1-yl)-N-[4-(trifluoromethyl)phenyl]-1,3,5-triazine-2,4-diamine]
7.00 to 8.00	Cc1nc2c(F)cc(F)cc2n1-c1nc(N)nc(Nc2ccc(OC(F)F)cc2)n1 [Cpd 47, N-[4-(difluoromethoxy)phenyl]-6-(4,6-difluoro-2-methyl-1H-benzimidazol-1-yl)-1,3,5-triazine-2,4-diamine]
7.00 to 8.00	Cc1nc2c(F)cc(F)cc2n1-c1nc(N)nc(Nc2ccc(OC(F)F)c(F)c2)n1 [Cpd 48, N-[4-(difluoromethoxy)-3-fluorophenyl]-6-(4,6-difluoro-2-methyl-1H-benzimidazol-1-yl)-1,3,5-triazine-2,4-diamine]
7.00 to 8.00	CCc1nc2c(F)cc(F)cc2n1-c1nc(N)nc(Nc2ccc(OC(F)F)cc2)n1 [Cpd 49, N-[4-(difluoromethoxy)phenyl]-6-(2-ethyl-4,6-difluoro-1H-benzimidazol-1-yl)-1,3,5-triazine-2,4-diamine]
7.00 to 8.00	CCc1nc2c(F)cc(F)cc2n1-c1nc(N)nc(Nc2ccc(OC(F)F)c(F)c2)n1 [Cpd 50, N-[4-(difluoromethoxy)-3-fluorophenyl]-6-(2-ethyl-4,6-difluoro-1H-benzimidazol-1-yl)-1,3,5-triazine-2,4-diamine]
7.00 to 8.00	Cc1nc2ccccc2n1-c1nc(N)nc(Nc2ccc(C(F)(F)F)nc2)n1 [Cpd 51, 6-(2-methyl-1H-benzimidazol-1-yl)-N-[6-(trifluoromethyl)pyridin-3-yl]-1,3,5-triazine-2,4-diamine]
5.52 to 7.00	Cc1nc2cc(F)ccc2n1-c1nc(N)nc(Nc2ccc(C(F)(F)F)nc2)n1 [Cpd 52, 6-(5-fluoro-2-methyl-1H-benzimidazol-1-yl)-N-[6-(trifluoromethyl)pyridin-3-yl]-1,3,5-triazine-2,4-diamine]
7.00 to 8.00	Cc1nc2ccc(F)cc2n1-c1nc(N)nc(Nc2ccc(C(F)(F)F)nc2)n1 [Cpd 53, 6-(6-fluoro-2-methyl-1H-benzimidazol-1-yl)-N-[6-(trifluoromethyl)pyridin-3-yl]-1,3,5-triazine-2,4-diamine]
5.52 to 7.00	Cc1nc2cc(F)ccc2n1-c1nc(N)nc(Nc2ccc(OC(F)F)c(F)c2)n1 [Cpd 54, N-[4-(difluoromethoxy)-3-fluorophenyl]-6-(5-fluoro-2-methyl-1H-benzimidazol-1-yl)-1,3,5-triazine-2,4-diamine]
7.00 to 8.00	CCc1nc2ccc(F)cc2n1-c1nc(N)nc(Nc2ccc(C(F)(F)F)cc2)n1 [Cpd 55, 6-(2-ethyl-6-fluoro-1H-benzimidazol-1-yl)-N-[4-(trifluoromethyl)phenyl]-1,3,5-triazine-2,4-diamine]
7.00 to 8.00	CCc1nc2ccc(F)cc2n1-c1nc(N)nc(Nc2ccc(OC(F)F)cc2)n1 [Cpd 56, N-[4-(difluoromethoxy)phenyl]-6-(2-ethyl-6-fluoro-1H-benzimidazol-1-yl)-1,3,5-triazine-2,4-diamine]
7.00 to 8.00	CCc1nc2ccc(F)cc2n1-c1nc(N)nc(Nc2ccc(OC(F)F)c(F)c2)n1 [Cpd 57, N-[4-(difluoromethoxy)-3-fluorophenyl]-6-(2-ethyl-6-fluoro-1H-benzimidazol-1-yl)-1,3,5-triazine-2,4-diamine]
7.00 to 8.00	CCc1nc2cc(F)ccc2n1-c1nc(N)nc(Nc2ccc(C(F)(F)F)cc2)n1 [Cpd 58, 6-(2-ethyl-5-fluoro-1H-benzimidazol-1-yl)-N-[4-(trifluoromethyl)phenyl]-1,3,5-triazine-2,4-diamine]
